Measurements reported in PubChem BioAssay (NCI).
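Cultured in 96-well plates, cells were exposed to test compound for 48 hours across five concentrations. Abbreviation: GI50, concentration required for 50% inhibition of growth. TGI: concentration producing complete growth inhibition.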

Columns and labels:
Experiment in all cases: NCI anticancer screen, dose series, 48 h
A549 NSCLC = tested on: A549 NSCLC
HT29 colon = tested on: HT29 colon
MALME-3M melanoma = tested on: MALME-3M melanoma
NCI-H226 lung = tested on: NCI-H226 lung
NCI-H522 lung = tested on: NCI-H522 lung
NCI/ADR-RES ovarian = tested on: NCI/ADR-RES ovarian
OVCAR-3 ovarian = tested on: OVCAR-3 ovarian
SK-MEL-5 melanoma = tested on: SK-MEL-5 melanoma
T-47D breast = tested on: T-47D breast
UACC-62 melanoma = tested on: UACC-62 melanoma

Work on `Cn1c(=S)c2[nH]c(SCCN3CCCC3)nc2n(C)c1=O` yielded a TGI (A549 NSCLC) greater than 100 µM, a TGI (HT29 colon) greater than 100 µM and a TGI (MALME-3M melanoma) greater than 100 µM. For the same compound, the TGI (NCI-H226 lung) was greater than 100 µM, the TGI (NCI-H522 lung) was greater than 100 µM and the TGI (NCI/ADR-RES ovarian) was greater than 100 µM. The TGI (OVCAR-3 ovarian) was greater than 100 µM, the TGI (SK-MEL-5 melanoma) was greater than 100 µM and the TGI (T-47D breast) was greater than 100 µM. For the same compound, the TGI (UACC-62 melanoma) was greater than 100 µM.

`Cc1ccc(S(=O)(=O)Cc2nc(-c3ccc(C(=O)NCc4cccnc4)cc3)oc2C)cc1` showed a GI50 (A549 NSCLC) greater than 21.5 µM, a TGI (A549 NSCLC) greater than 100 µM and a GI50 (HT29 colon) of 0.0784 µM. The TGI (HT29 colon) was greater than 100 µM, the GI50 (MALME-3M melanoma) was 27.5 µM and the TGI (MALME-3M melanoma) was greater than 100 µM. For the same compound, the GI50 (NCI-H226 lung) was greater than 100 µM, the TGI (NCI-H226 lung) was greater than 100 µM and the GI50 (NCI-H522 lung) was 1.33 µM. The TGI (NCI-H522 lung) was 27.7 µM, the GI50 (NCI/ADR-RES ovarian) was 0.623 µM and the TGI (NCI/ADR-RES ovarian) was greater than 100 µM. The GI50 (OVCAR-3 ovarian) was 8.1 µM, the TGI (OVCAR-3 ovarian) was greater than 100 µM and the GI50 (SK-MEL-5 melanoma) was 2.85 µM. For the same compound, the TGI (SK-MEL-5 melanoma) was greater than 100 µM, the GI50 (T-47D breast) was 0.287 µM and the TGI (T-47D breast) was greater than 100 µM. For the same compound, the GI50 (UACC-62 melanoma) was greater than 91.2 µM and the TGI (UACC-62 melanoma) was greater than 100 µM.

`C#CCOc1cccc(Nc2ncnc3ccc(NC(=O)CCl)cc23)c1` showed a GI50 (A549 NSCLC) of 0.225 µM, a TGI (A549 NSCLC) greater than 44 µM and a GI50 (HT29 colon) of 0.0981 µM. The TGI (HT29 colon) was 6.87 µM, the GI50 (MALME-3M melanoma) was 3.46 µM and the TGI (MALME-3M melanoma) was 8.63 µM. It also gave a GI50 (NCI-H226 lung) of 7.43 µM, a TGI (NCI-H226 lung) greater than 100 µM and a GI50 (NCI-H522 lung) of 0.777 µM. The TGI (NCI-H522 lung) was 3.97 µM, the GI50 (NCI/ADR-RES ovarian) was 0.817 µM and the TGI (NCI/ADR-RES ovarian) was greater than 100 µM. The GI50 (OVCAR-3 ovarian) was 0.908 µM, the TGI (OVCAR-3 ovarian) was 7.06 µM and the GI50 (SK-MEL-5 melanoma) was 3.37 µM. It also gave a TGI (SK-MEL-5 melanoma) of 8.9 µM, a GI50 (T-47D breast) of 3.44 µM and a TGI (T-47D breast) of 30.9 µM. It also gave a GI50 (UACC-62 melanoma) of 1.65 µM and a TGI (UACC-62 melanoma) of 20.3 µM.

With `C=C1C(=O)O[C@H]2[C@H]1CC/C(COC(=O)c1ccc(C#N)cc1)=C\CC[C@@]1(C)O[C@@H]21` the GI50 (A549 NSCLC) was 6 µM, the TGI (A549 NSCLC) was 20.5 µM and the GI50 (HT29 colon) was 1.62 µM. For the same compound, the TGI (HT29 colon) was 4.02 µM, the GI50 (MALME-3M melanoma) was 2.04 µM and the TGI (MALME-3M melanoma) was 4.16 µM. The GI50 (NCI-H226 lung) was 2.26 µM, the TGI (NCI-H226 lung) was 7.6 µM and the GI50 (NCI-H522 lung) was 1.55 µM. It also gave a TGI (NCI-H522 lung) of 3.35 µM, a GI50 (NCI/ADR-RES ovarian) of 4.25 µM and a TGI (NCI/ADR-RES ovarian) of 18.8 µM. For the same compound, the GI50 (OVCAR-3 ovarian) was 1.36 µM, the TGI (OVCAR-3 ovarian) was 2.75 µM and the GI50 (SK-MEL-5 melanoma) was 1.85 µM. For the same compound, the TGI (SK-MEL-5 melanoma) was 3.75 µM, the GI50 (T-47D breast) was 1.74 µM and the TGI (T-47D breast) was 5.24 µM. For the same compound, the GI50 (UACC-62 melanoma) was 1.95 µM and the TGI (UACC-62 melanoma) was 4.33 µM.

Work on `COc1ccc(C(=O)COc2cccc(/C=C3\CSc4ccc(C)cc4C3=O)c2)cc1` yielded a GI50 (A549 NSCLC) greater than 100 µM, a TGI (A549 NSCLC) greater than 100 µM and a GI50 (HT29 colon) of 6.02 µM. The TGI (HT29 colon) was greater than 100 µM, the GI50 (MALME-3M melanoma) was 41 µM and the TGI (MALME-3M melanoma) was greater than 100 µM. It also gave a GI50 (NCI-H226 lung) greater than 100 µM, a TGI (NCI-H226 lung) greater than 100 µM and a GI50 (NCI-H522 lung) of 3.62 µM. It also gave a TGI (NCI-H522 lung) of 37.2 µM, a GI50 (NCI/ADR-RES ovarian) of 3.89 µM and a TGI (NCI/ADR-RES ovarian) of 18.7 µM. It also gave a GI50 (OVCAR-3 ovarian) of 15.4 µM, a TGI (OVCAR-3 ovarian) of 57.6 µM and a GI50 (SK-MEL-5 melanoma) of 10.9 µM. The TGI (SK-MEL-5 melanoma) was greater than 100 µM, the GI50 (T-47D breast) was 11.7 µM and the TGI (T-47D breast) was greater than 100 µM. The GI50 (UACC-62 melanoma) was 14.2 µM and the TGI (UACC-62 melanoma) was greater than 100 µM.

In the case of `COC1=Nc2ccccc2S(=O)(=O)C=C1`, the TGI (A549 NSCLC) is reported as 36.9 µM, the TGI (HT29 colon) is reported as 26.7 µM and the TGI (MALME-3M melanoma) is reported as 6.84 µM. For the same compound, the TGI (NCI-H226 lung) was greater than 100 µM, the TGI (NCI-H522 lung) was 2.81 µM and the TGI (NCI/ADR-RES ovarian) was 36.2 µM. It also gave a TGI (OVCAR-3 ovarian) of 6.79 µM, a TGI (SK-MEL-5 melanoma) of 24.5 µM and a TGI (T-47D breast) of 14.2 µM. The TGI (UACC-62 melanoma) was 37.4 µM.

With `O=[N+]([O-])c1ccc2ncccc2c1Cl` the GI50 (A549 NSCLC) was 3.29 µM, the TGI (A549 NSCLC) was greater than 100 µM and the GI50 (HT29 colon) was 3.45 µM. The TGI (HT29 colon) was 9.29 µM, the GI50 (MALME-3M melanoma) was 15.2 µM and the TGI (MALME-3M melanoma) was 54.4 µM. The GI50 (NCI-H226 lung) was 6.22 µM, the TGI (NCI-H226 lung) was greater than 100 µM and the GI50 (NCI-H522 lung) was 2.74 µM. The TGI (NCI-H522 lung) was 6.59 µM, the GI50 (NCI/ADR-RES ovarian) was 3.92 µM and the TGI (NCI/ADR-RES ovarian) was greater than 100 µM. The GI50 (OVCAR-3 ovarian) was 2.77 µM, the TGI (OVCAR-3 ovarian) was 6.99 µM and the GI50 (SK-MEL-5 melanoma) was 2.95 µM. For the same compound, the TGI (SK-MEL-5 melanoma) was 10 µM, the GI50 (T-47D breast) was 11.2 µM and the TGI (T-47D breast) was 42.1 µM. The GI50 (UACC-62 melanoma) was 5.84 µM and the TGI (UACC-62 melanoma) was 20.4 µM.
